Literature values, collected in paper PMC12337022, “Randomized, Double-Blind, Crossover Study Comparing the Bioavailability of 4 Ashwagandha (Withania somnifera (L.) Dunal) Extracts in Healthy Adults Under Fasting Condition” (Current Therapeutic Research, Clinical and Experimental, 2025).
Like-named read-outs stand apart in the source and are kept apart here.

Columns and labels:
[1] = system: Madin-Darby canine kidney cells
[2] = design: method as in Pires et al 27; conditions: Phase I dose-escalation, 13 participants, highest dose level tested, HPLC sensitivity 50 ng/mL; ref Pires et al 27
[3] = design: method as in Dai et al 20; conditions: rat and human liver microsomes; ref Dai et al 20
[4] = design: method as in Singh et al 25; conditions: Sprague-Dawley rats, orally at 25 mg/kg and intravenously at 2 mg/kg; ref Singh et al 25
[5] = Madin-Darby canine kidney cells, in vitro

Molecule | permeability [1, 5] | permeability ([1]; MDCK) | also measured
1,2-deoxy-withastramonolide | highly permeable |  | 
CC1=C(CO)C(=O)O[C@@H]([C@@H](C)[C@H]2CC[C@H]3[C@@H]4C[C@H]5O[C@]56[C@@H](O)C=CC(=O)[C@]6(C)[C@H]4CC[C@]23C)C1 [withaferin A] | low permeability |  | detectability in plasma [2]: not detectable; half-life [3]: 5.6 min; oral bioavailability [4]: about 5%
CC1=C(C)C(=O)O[C@@H]([C@](C)(O)[C@H]2CC[C@H]3[C@@H]4[C@@H]5O[C@@H]5[C@@]5(O)CC=CC(=O)[C@]5(C)[C@H]4CC[C@]23C)C1 [withanolide A] |  | highly permeable | 
CC1=C(C)C(=O)O[C@@H]([C@@H](C)[C@H]2CC[C@H]3[C@@H]4[C@@H]5O[C@@H]5[C@@]5(O)CC=CC(=O)[C@]5(C)[C@H]4CC[C@]23C)C1 [withanolide B] |  | highly permeable | 
CC1=C(C)C(=O)O[C@@H]([C@@H](C)[C@@]2(O)CC[C@H]3[C@@H]4[C@@H]5O[C@@H]5[C@@]5(O)CC=CC(=O)[C@]5(C)[C@H]4CC[C@@]32C)C1 [withanone] | highly permeable |  | 
CC1=C(CO)C(=O)O[C@@H]([C@@H](C)[C@H]2CC[C@H]3[C@@H]4CC=C5C[C@@H](O[C@@H]6O[C@H](CO[C@@H]7O[C@H](CO)[C@@H](O)[C@H](O)[C@H]7O)[C@@H](O)[C@H](O)[C@H]6O)C[C@H](O)[C@]5(C)[C@H]4CC[C@]23C)C1 [withanoside IV] |  | low permeability | 
CC1=C(C)C(=O)O[C@@H]([C@@H](C)[C@H]2CC[C@H]3[C@@H]4CC=C5C[C@@H](O[C@@H]6O[C@H](CO[C@@H]7O[C@H](CO)[C@@H](O)[C@H](O)[C@H]7O)[C@@H](O)[C@H](O)[C@H]6O)C[C@H](O)[C@]5(C)[C@H]4CC[C@]23C)C1 [withanoside V] |  | low permeability | 
